In PubChem BioAssay (NCI):
Where “and” joins values, the source holds several entries; their conditions need not be identical. Identical values can stand only once.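 Cells were grown in 96-well plates and exposed to each compound for 48 hours at five concentrations; endpoints were interpolated linearly between bracketing concentrations, or set to the highest concentration if not reached. GI50 = concentration required for 50% inhibition of growth. TGI denotes the concentration required for complete inhibition of growth.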

What was measured:
Assay in all cases: DTP human tumour cell line panel, 48 h
SK-MEL-2 melanoma = system: SK-MEL-2 melanoma
HCC-2998 colon = system: HCC-2998 colon
ACHN renal = system: ACHN renal
EKVX NSCLC = system: EKVX NSCLC
OVCAR-4 ovarian = system: OVCAR-4 ovarian
SF-295 CNS = system: SF-295 CNS
A549 NSCLC = system: A549 NSCLC
SNB-19 CNS = system: SNB-19 CNS
SK-MEL-5 melanoma = system: SK-MEL-5 melanoma
HOP-92 NSCLC = system: HOP-92 NSCLC

| SMILES | GI50 (SK-MEL-2 melanoma) [µM] | TGI (SK-MEL-2 melanoma) | GI50 (HCC-2998 colon) [µM] | TGI (HCC-2998 colon) | GI50 (ACHN renal) [µM] | TGI (ACHN renal) | GI50 (EKVX NSCLC) [µM] | TGI (EKVX NSCLC) [µM] | GI50 (OVCAR-4 ovarian) [µM] | TGI (OVCAR-4 ovarian) | GI50 (SF-295 CNS) [µM] | TGI (SF-295 CNS) | GI50 (A549 NSCLC) [µM] | TGI (A549 NSCLC) | TGI (SNB-19 CNS) | TGI (SK-MEL-5 melanoma) | TGI (HOP-92 NSCLC) [µM] | GI50 (HOP-92 NSCLC) [µM] | GI50 (SNB-19 CNS) [µM] | GI50 (SK-MEL-5 melanoma) [µM] |
| --- | --- | --- | --- | --- | --- | --- | --- | --- | --- | --- | --- | --- | --- | --- | --- | --- | --- | --- | --- | --- |
| CO/N=C(/COc1c(-c2ccccc2)oc2ccccc2c1=O)c1ccc(OC)cc1 | > 100 | > 100 µM | > 100 | > 100 µM | > 100 | > 100 µM | > 100 | > 100 | 81.4 | > 100 µM | > 100 | > 100 µM | > 100 | > 100 µM | – | – | – | – | – | – |
| CN(C)CC/C(=N\Nc1ccc(Cl)c(Cl)c1)c1ccccc1 | – | – | – | – | – | 3.05 µM | – | 3.93 | – | 5.01 µM | – | 3.99 µM | – | 3.8 µM | 13.8 µM | 3.43 µM | – | – | – | – |
| Cc1ccccc1-c1c(N)nc(N)nc1C(=O)Nc1nccs1 | – | > 100 µM | – | > 100 µM | – | > 100 µM | – | > 100 | – | > 100 µM | – | > 100 µM | – | > 100 µM | > 100 µM | > 100 µM | > 100 | – | – | – |
| Nc1nc(N)c(N=O)c(Nc2ccc(I)cc2)n1 | – | 34.1 µM | – | 88.2 µM | – | > 100 µM | – | > 100 | – | – | – | 67.9 µM | – | > 100 µM | > 100 µM | 26.3 µM | – | – | – | – |
| O=C(O)C[O][Sb][O]CC(=O)O | > 100 | > 100 µM | – | – | > 100 | > 100 µM | > 100 | > 100 | > 100 | > 100 µM | > 100 | > 100 µM | > 100 | > 100 µM | > 100 µM | > 100 µM | > 100 | > 100 | > 100 | > 100 |
| CC(C)(C)OC(=O)NC1CCC[C@H]1O (stereo partly drawn) | – | > 100 µM | – | > 100 µM | – | > 100 µM | – | > 100 | – | > 100 µM | – | > 100 µM | – | > 100 µM | > 100 µM | > 100 µM | > 100 | – | – | – |
| COc1ccc(-c2cc(-c3cn[nH]c3-c3ccccn3)ccn2)cc1 | > 25 | > 25 µM | > 25 | > 25 µM | > 25 | > 25 µM | > 25 | > 25 | > 25 | > 25 µM | > 25 | > 25 µM | > 25 | > 25 µM | > 25 µM | > 25 µM | > 25 | > 25 | > 25 | > 25 |
| CC(=O)Nc1ccccc1-c1cnc2ccccc2n1 | – | – | – | > 100 µM | – | > 100 µM | – | > 100 | – | > 100 µM | – | > 100 µM | – | > 100 µM | > 100 µM | > 100 µM | > 100 | – | – | – |
| Nc1ncnc2c(C3OC(CO)C(O)C3O)[nH]nc12 (stereo not drawn) | 0.0507 | 0.739 µM and 0.5 µM | 0.0575 | 3.11 µM and 1.31 µM | 0.0944 | – | 1.6 | – | 0.116 | 3.51 µM and 2.3 µM | 0.231 | 1.1 µM and 10.1 µM | – | 9.43 µM | 3.68 µM and 24.8 µM | 10.9 µM and 7.47 µM | – | 0.202 | 0.138 | 0.984 |
| Cc1cc2c3ccccc3ccc2[n+]2ccccc12 | 6.26 | 22.7 µM | 4.71 | 19.7 µM | 29.4 | > 100 µM | 1.22 | > 33.4 | 2.88 | 14.8 µM | 2.29 | 12.7 µM | 0.628 | > 76.9 µM | 8.72 µM | 3.78 µM | 27.4 | 2.69 | 2.11 | 1.63 |
| N#Cc1cccc(/C=C(/C(=O)c2ccccc2)c2ccccc2)c1 | – | – | 3.15 | 9.35 µM | 2.47 | 5.76 µM | – | – | 6.35 | 20.3 µM | 4.23 | 17.1 µM | 10.8 | 47.6 µM | 19.9 µM | 15.6 µM | – | 2.6 | 5.07 | 4.04 |
| CC(=O)OC1C/C(C)=C/CCC(C)/C=C/C2(C)CCC(C(C)(C)O)C12 (stereo not drawn) | – | > 100 µM | – | > 100 µM | – | > 100 µM | – | > 100 | – | > 100 µM | – | > 100 µM | – | > 100 µM | > 100 µM | > 100 µM | 51.4 | – | – | – |
| Cc1cccc(NC(=O)CCl)c1 | – | > 10 µM | – | > 10 µM | – | > 10 µM | – | > 10 | – | 8.18 µM | – | > 10 µM | – | > 10 µM | > 10 µM | > 10 µM | – | – | – | – |
| NC(=S)NNC(=O)CCC(=O)Nc1ccc(Cl)cc1Cl | – | > 100 µM | – | > 100 µM | – | > 100 µM | – | – | – | > 100 µM | – | > 100 µM | – | > 100 µM | > 100 µM | > 100 µM | > 100 | – | – | – |
| O=C1[C@@H]2C3SC(c4ccccc43)[C@@H]2C(=O)N1c1ccccc1 | – | > 100 µM | – | > 100 µM | – | > 100 µM | – | > 100 | – | – | – | > 100 µM | – | > 100 µM | > 100 µM | > 100 µM | > 100 | – | – | – |
| CC(=O)C1C(=O)C(=O)N(c2ccccc2N2C(=O)C(=O)C(C(C)=O)C2=O)C1=O (stereo not drawn) | – | > 100 µM | – | > 100 µM | – | > 100 µM | – | > 100 | – | > 100 µM | – | > 100 µM | – | > 100 µM | > 100 µM | > 100 µM | > 100 | – | – | – |
| NC(CSc1nc2ccccn2c1[N+](=O)[O-])C(=O)O (stereo not drawn) | – | > 100 µM | – | > 100 µM | – | > 100 µM | – | > 100 | – | > 100 µM | – | > 100 µM | – | > 100 µM | > 100 µM | > 100 µM | > 100 | – | – | – |
| Nc1ncnc2c(C3OC(CO)C(O)C3O)scc12 (stereo not drawn) | 0.228 | 2.14 µM | – | 0.121 µM and 0.277 µM | 0.127 | 1.9 µM and 3.66 µM | 0.269 | 4.29 | – | 2.24 µM and 0.746 µM | 0.591 | 2.45 µM and 3.66 µM | – | 1.46 µM and 5.46 µM | 65.6 µM | 4.68 µM and 2.64 µM | 0.529 | – | 4.92 | 0.0781 |
| CCCCCCCCCC1C(C)c2c([nH]c3ccccc23)C2C(=O)N(c3ccccc3)C(=O)C21 (stereo not drawn) | – | 32.2 µM | – | 25.7 µM | – | 22.8 µM | – | > 100 | – | 19.1 µM | – | 28.9 µM | – | > 100 µM | – | 31.6 µM | – | – | – | – |
